In patent US20230042367A1, “METHODS AND COMPOSITIONS FOR TREATING CANCERS HAVING F-BOX AND WD-REPEAT PROTEIN 7 (FBXW7) ALTERATIONS AND/OR CYCLIN L1 (CCNL1) GAIN OR AMPLIFICATION” (THE GOVERNING COUNCIL OF THE UNIVERSITY OF TORONTO, priority 2019, published 2023):
Entries after “also recorded” stand apart in the source; their conditions may differ.

Assays:
[1] = system: FBXW7^−/− HPAF-II cells; experiment: Dose-response assay (CellTiter-Glo), FBXW7 knockout HPAF-II cells compared with wildtype; format: cell-based
Procedure: (§1) HPAF-II, C33A, SiHa HEK293T cells (ATCC) were grown in DMEM (4.6 g/L D-glucose, L-glutamine)+10% fetal bovine serum+5% Anti-Anti at 37° C. and 5% CO2. Caski cells were grown in RPMI-1640+10% fetal bovine serum+5% Anti-Anti at 37° C. and 5% CO2. For serum starvation, regular growth media was removed, and replaced with DMEM (4.6 g/L D-glucose, L-glutamine)+5% Anti-Anti for 18 h. CHIR99021 was used at 4 nM.
(§2) HPAF-II mutant cells (APC-truncation, AXIN-knockout, FBXW7-knockout) were transfected via electroporation using the Neon system (Thermo) under the following conditions; 2 μg of DNA (sgRNA construct pX330) 1150V, 30 ms and 2 pulses. Cells were allowed to recover for 2 days before the addition of 100 nM LGK-974 to enrich for mutations driving Wnt pathway activation. Cell lines were validated for editing using TIDE (tracking of insertions and deletions (Brinkman et al 2014).
(§3) All cells were seeded in triplicate at 2500 cells/well. The following day, a dose-response treatment of OTS964 (Cayman Chemicals) or AZD6738 (SelleckChem). At 3d and 7d of treatment, respectively cell viability was determined using CellTiter-Glo (Promega) as per manufacturer's instructions.

[2] = system: C-33-A cells (FBXW7 mutation); experiment: Dose-response assay in cervical cancer cell line panel (Ca-Ski, DoTc2-4510, SiHa, C-33-A); format: cell-based
Procedure: as §1, §3

[3] = system: CCNL1; experiment: Western blot of CCNL1 levels after GSK3 inhibitor treatment; format: cell-based; conditions: CHIR99021 used at 4 nM, FIG. 6
Procedure: Using the methods of Example 8, a co-expression analysis followed by cycloheximide chase illustrated the effect of FBXW7 expression on CCNL1 stability. […] Mutation in the substrate-recognition domain of FBXW7 lead to a robust stabilization of CCNL1 levels.
as §1
All samples were lysed in 4× Laemmli Sample Buffer (50 mM Tris-HCl pH 6.8, 2% SDS, 10% glycerol, 1% β-mercaptoethanol, 12.5 mM EDTA, 0.02% bromophenol blue). Lysates were sonicated, boiled, and centrifuged to pellet insoluble material. Approx 10 μg were loaded per sample on a 4-15% SDS-PAGE Stain-Free TGX BioRad precast gel. Gels were run at 150V for approximately 60 minutes. Gels were transferred to methanol-activated PVDF at 90V for 120 minutes. Membranes were blocked in 5% milk in Tris-buffered Saline (pH 7.4)+1% Tween-20 (TBS-T) for 1 hr, and incubated with corresponding primary antibodies overnight. […]

[4] = system: HPAF-II cells; experiment: Clonogenic assay of LGK974 sensitivity in HPAF-II wild type and knockout cells; format: cell-based
Procedure: As validation, each of the genes discovered in this LGK974 positive selection screen were knocked-out in HPAF-II cells and the sensitivity to LGK974 was determined using clonogenic assays. The assay tested HPAF-II wild type cells, HPAF-II wild type cells treated with LGK974, HPAF-II cells with the gene APC knocked out and treated with LGK974, HPAF-II cells expressing a degradation resistant mutant (DegR)-ßCatenin and treated with LGK974, HPAF-II cells with the AXIN gene knocked out and treated with LGK974, and HPAF-II cells with the FBXW7 gene knocked out and treated with LGK974.
as §2

[5] = system: HPAF-II cells; experiment: LGK974 treatment of RNF43 mutant HPAF-II cells (proliferation, LD90 dose for CRISPR screen); format: cell-based
Excerpt: HPAF-II cells harbor a mutation in RNF43 a negative regulator of the Wnt signaling pathway and as a result these cells are exquisitely dependent on the presence of Wnt ligands. […] Genome wide CRISPR-Cas9 screen was used to identify genes underlying PORCN inhibitor sensitivity, specifically, gene knockouts mediating LGK974 resistance. To do this, the RNF43 mutant cell line HPAF-II was transduced with the genome-wide TKO gRNA library and treated with a LD90 dose of the PORCN inhibitor LGK974 (Liu et al 2013). Under these conditions, the vast majority of cells undergo cell cycle arrest, but a few clones bypassed this process and emerged during the selection. Next generation sequencing of the resistant clones identified gRNA targeting several known negative regulators of Wnt signalling—including APC and AXIN1 that re-activated the ßcatenin pathway distal to the receptor complex. […]
HPAF-II cells were infected with the Toronto knockout library version 1 (TKOv1)—a pooled sgRNA lentiviral library (Hart et al2015) at a multiplicity of infection of 0.3, in the presence of 8 μg/ml polybrene (Sigma) for 24 h. […] Sequenced gRNAs were mapped to the TKOv1 library using MaGECK 0.5.3, and read counts were normalized by total reads per sample before averaging biological replicates and determining gRNA enrichment.

[6] = system: wildtype HPAF-II cells; experiment: Dose-response assay (CellTiter-Glo), wildtype HPAF-II cells; format: cell-based; conditions: FIG. 9
Procedure: as §1, §3

[7] = system: Cervical cancer patient-derived cancer organoids; experiment: Viability of patient-derived cervical cancer organoids (Cell Titer Glo); conditions: 7 days treatment, a subset of organoid models, FIGS. 10 and 11
Procedure: Cervical cancer patient-derived cancer organoids were treated with dose-response of OTS964 for 7 days. Following treatment, organoids were imaged, and viability was measured using Cell Titer Glo.

Structure (SMILES): C[C@@H]1COCCN1c1cc(C2([S@](C)(=N)=O)CC2)nc(-c2ccnc3[nH]ccc23)n1 [AZD6738, (R)-imino(methyl)(1-(6-((R)-3-methylmorpholino)-2-(1H-pyrrolo[2,3-b]pyridin-4-yl)pyrimidin-4-yl)cyclopropyl)-I6-sulfanone]
- cell viability under AZD6738, FBXW7^−/− vs wildtype HPAF-II ([1]; 7d treatment, FIG. 15B): much more susceptible; also recorded: hypersensitivity
- enhanced activity in C33A compared to Caski and SiHa cell lines ([2]; AZD6738, FIG. 15D): 4-6 fold
- cell viability under AZD6738 in cervical cancer cell line panel ([2]; C33A, FIG. 15D): highest susceptibility; also recorded: highly susceptible

Structure (SMILES): Cc1c[nH]c(-c2cnc(NCCNc3ccc(C#N)cn3)nc2-c2ccc(Cl)cc2Cl)n1 [CHIR99021]
- CCNL1 levels after treatment with GSK3 inhibitor [3]: increased levels of CCNL1

Structure (SMILES): Cc1cc(-c2ncc(CC(=O)Nc3ccc(-c4cnccn4)cn3)cc2C)ccn1 [LGK974]
- growth under LGK974 after knockout of APC and AXIN1 ([4]; APC and AXIN1 knockout HPAF-II): fully rescued the growth
- resistance to LGK974 after knockout of FBXW7 ([4]; FBXW7 knockout HPAF-II): partial resistance
- growth of HPAF-II wildtype cells under LGK974 ([4]; wildtype (RNF43 mutation)): robustly arrested the growth
- LD90 dose ([5]; HPAF-II cells, positive selection screen): 20 nM
- effect of LGK974 treatment on HPAF-II cells ([5]; RNF43 mutant HPAF-II): cell cycle arrest and strong inhibition of proliferation

Structure (SMILES): Cc1cc(O)c(-c2ccc([C@@H](C)CN(C)C)cc2)c2c1[nH]c(=O)c1sccc12 [OTS964, 9-[4-[(1R)-2-(dimethylamino)-1-methylethyl]phenyl]-8-hydroxy-6-methyl-thieno[2,3-c]quinolin-4(5H)-one]
- sensitivity of FBXW7 mutant cells to CDK11 inhibition relative to wildtype ([1]; FBXW7^−/− vs wildtype HPAF-II cells, proliferation, FIG. 9): at least 5 times
- proliferation response to OTS964, FBXW7 knockout vs wild type cells ([1]; HPAF-II, 3d treatment, FIG. 9): striking increase in sensitivity; also recorded: hypersensitive
- dose at which inhibition in wildtype cells was seen (only at the highest dose tested) [6]: 1 µM
- OTS964 dose response in cervical cancer cell line panel ([2]; C-33-A vs Ca-Ski, DoTc2-4510, SiHa, FIG. 14A): hypersensitive
- relative viability of cervical cancer organoids under OTS964 [7]: sensitive
